Test results published in ChEMBL document CHEMBL1137669, “BK Virus replication in vitro: limited effect of drugs interfering with viral uptake and intracellular transport” (Antimicrob Agents Chemother, 2007).

How the values were obtained:
[1] = Cytotoxicity against human WI38 cells assessed as reduction in cellular DNA level preincubated for 2 hrs before viral infection measured after 7 days by real time PCR assay; assay type: cell-based, WI-38; conditions: for CC50 at 168 h: WI38 cells
[2] = Selectivity index, ratio of CC50 for human WI38 cells preincubated for 2 hrs before viral infection measured after 7 days by real time PCR assay to EC50 for BKV Gardner ATCC VR837; assay type: toxicity, cell-based, WI-38; conditions: for selectivity ratio at 168 h: WI38 cells, read-out: Ratio CC50/EC50
BK polyomavirus [3] = assay: Antiviral activity against BKV Gardner ATCC VR837 infected in human WI38 cells assessed as reduction in viral DNA level preincubated for 2 hrs before viral infection measured after 7 days by real time PCR assay; assay type: functional, organism-based, Betapolyomavirus hominis, WI-38
[4] = Cytotoxicity against human WI38 cells assessed as reduction in cellular DNA level at 6.25 uM preincubated for 2 hrs before viral infection measured after 7 days by real time PCR assay; assay type: cell-based; conditions: wi-38, 168 h
[5] = Cytotoxicity against human WI38 cells assessed as reduction in cellular DNA level after 7 days by real time PCR assay; assay type: cell-based, WI-38
[6] = Cytotoxicity against human WI38 cells by conventional neutral red assay; assay type: cell-based, WI-38
[7] = Selectivity index, ratio of CC50 for human WI38 cells by conventional neutral red assay to EC50 for BKV Gardner ATCC VR837; assay type: toxicity, cell-based, WI-38; conditions: read-out: Ratio CC50/EC50
BK polyomavirus [8] = assay: Antiviral activity against BKV Gardner ATCC VR837 infected in human WI38 cells assessed as reduction in viral DNA level after 7 days by real time PCR assay; assay type: functional, organism-based; conditions: Betapolyomavirus hominis, WI-38, 168 h
[9] = Selectivity index, ratio of CC50 for human WI38 cells after 7 days by real time PCR assay to EC50 for BKV Gardner ATCC VR837; assay type: toxicity, cell-based, WI-38; conditions: read-out: Ratio CC50/EC50
[10] = Betapolyomavirus hominis, Gardner, WI-38

Compound | CC50 at 168 h [1] | selectivity ratio at 168 h [2] | EC50 (BK polyomavirus [3]; [10]) | further results
CCN(CC)CCCC(C)Nc1ccnc2cc(Cl)ccc12 (centres undefined) [CHLOROQUINE] | 8.5 µM | 5.32 | 1.7 µM | –
O=C1Cc2cc(CCN3CCN(c4nsc5ccccc45)CC3)c(Cl)cc2N1 [ZIPRASIDONE] | > 100 µM | – | > 100 µM | –
Cc1cc2c(s1)Nc1ccccc1N=C2N1CCN(C)CC1 [OLANZAPINE] | > 100 µM | – | > 100 µM | –
O=C(O)[C@H]1OC(O)[C@H](O)[C@@H](O)[C@@H]1O (some centres undefined) | > 100 µM | – | > 100 µM | –
CCCCCCCCO[C@@H]1O[C@H](CO)[C@@H](O)[C@H](O)[C@H]1O | > 100 µM | – | > 100 µM | –
NYSTATIN | – | – | – | CC50 ([1]; wi-38, 168 h): 48.6 µM; Ratio CC50/EC50 ([2]; wi-38, 168 h): 5.13; EC50 (BK polyomavirus [3]; wi-38): 9.81 µM
CN(C)CCCN1c2ccccc2Sc2ccc(Cl)cc21 [CHLORPROMAZINE] | 10.3 µM | 1.98 | 7.6 µM | –
COc1cc2c(c(OC)c1OC)-c1ccc(OC)c(=O)cc1[C@@H](NC(C)=O)CC2 [COLCHICINE] | 0.0476 µM | 3.63 | 0.022 µM | –
COC(=O)[C@H]1O[C@@H](OC(C)=O)[C@H](OC(C)=O)[C@@H](OC(C)=O)[C@@H]1OC(C)=O | > 100 µM | – | > 100 µM | –
O=C1OC([C@@H](O)CO)[C@H](O)[C@@H]1O (some centres undefined) | > 100 µM | – | > 100 µM | –
CN1CCN(C2=Nc3cc(Cl)ccc3Nc3ccccc32)CC1 [CLOZAPINE] | 40 µM | 4.9 | 23.3 µM | –
CO[C@H]1O[C@H](CO)[C@@H](O)[C@H](O)[C@@H]1O | > 100 µM | – | > 100 µM | –
Cc1nc2n(c(=O)c1CCN1CCC(c3noc4cc(F)ccc34)CC1)CCCC2 [RISPERIDONE] | 25 µM | – | > 25 µM | –
CC(=O)OC[C@H]1OC[C@H](OC(C)=O)[C@@H](OC(C)=O)[C@H]1OC(C)=O | > 100 µM | – | > 100 µM | –
C[C@@H]1[C@H](O)[C@@H](C)/C=C/C=C/C=C/C=C/C=C/C=C/C=C/[C@H](O[C@@H]2O[C@H](C)[C@@H](O)[C@H](N)[C@@H]2O)C[C@@H]2O[C@](O)(C[C@@H](O)C[C@@H](O)[C@H](O)CC[C@@H](O)C[C@@H](O)CC(=O)O[C@H]1C)C[C@H](O)[C@H]2C(=O)O [AMPHOTERICIN B] | 4.99 µM | 2.99 | 1.67 µM | Activity [4]: Active
COC(=O)[C@H]1O[C@@H](O)[C@H](O)[C@@H](O)[C@H]1O | > 100 µM | – | > 100 µM | –
CCCCCCCCCO[C@@H]1O[C@H](CO)[C@@H](O)[C@H](O)[C@H]1O | 78.3 µM | 16 | 6.35 µM | CC50 at 168 h [5]: 114 µM; CC50 [6]: 126 µM; selectivity ratio [7]: 30.5; EC50 (BK polyomavirus [8]): 98.3 µM; selectivity ratio at 168 h [9]: 1.25
CC(=O)OC[C@H]1OC[C@H](OC(C)=O)[C@@H](OC(C)=O)[C@@H]1OC(C)=O | > 100 µM | – | > 100 µM | –
